Experiment [1] concerns the target GABA-A receptor; anion channel. The experiment is described as follows: Displacement of [3H]flunitrazepam from GABAA central benzodiazepine receptor in Wistar rat brain membrane without cerebellum measured after 60 mins by scintillation counting analysis. It is filed as cell membranes.
In experiment [2] the target is GABA-A receptor; anion channel (Rattus norvegicus) (UniProt O09028+P15431+P18506+P18508+P19969+P20236+P23574+P23576+P28471+P28473+P30191+P62813+P63079+P63138+Q91ZM7+Q9ES14). The experiment is described as follows: Displacement of [3H]flunitrazepam from GABAA central benzodiazepine receptor in Wistar rat brain membrane without cerebellum measured after 60 mins by scintillation counting analysis relative to control. It is filed as cell membranes.

Structures are written as SMILES. pIC50: −log10 of the molar value. Several values for one entry are separate records, joined by “and”; a condition that tells them apart may be missing. Equal values may be shown once.

As to `Cc1cc(Cl)cc2c1-n1cnnc1CN=C2c1ccccc1Cl`, in experiment [1], the pIC50 was 7.64.

For the compound `Cc1cc(Cl)cc2c1-n1c(C)nnc1CN=C2c1ccccc1Cl`, the pIC50 in experiment [1] was 7.96 and 7.47. This compound gave an inhibition in experiment [2] of less than 50%.

`Clc1ccc2c(c1)C(c1ccccc1Cl)=NCc1nncn1-2` gave a pIC50 in experiment [1] of 8.71. Consider `Cc1cc(Cl)cc2c1-n1c(C)nnc1CN=C2c1ccccc1`, for which the pIC50 in experiment [1] is 6.68 and 6.37. For the same compound, the inhibition in experiment [2] is less than 50%.

The record behind these values is ChEMBL document CHEMBL5120840, “Axial chirality and affinity at the GABAA receptor of triazolobenzodiazepines” (Bioorg Med Chem, 2022).
